# Assays:
# [1] = clindamycin phosphate, erythromycin base, fusidate sodium, fluorouracil, desonide, amcinonide and triamcinolone acetonide; cited from earlier work
# rats = conditions: cited from earlier work
# [2] = Penetration study through human skin, Franz diffusion apparatus; type: in vitro ADME; conditions: for reduction of penetration on addition, in words (compared with octanoic acid): Example 8
# Excerpt: EtOH is ethanol. The term mcg=microgram.
compound,measurement,setting,value
"CCCCCCCCCCCCN1CCCCCC1=O [Azone, 1-dodecyl-azacycloheptan-2-one]",enhancement of cutaneous penetration,[1],enhance the cutaneous penetration
same,order of toxicity,"rats; rat, in vivo",low order of toxicity
same,lethal dose for 50% survival (LD50),rats; rats,about 8 g/kg
CCCCCCCCCCCCCCCCO [cetyl alcohol],"reduction of penetration on addition, in words (compared with octanoic acid)",[2],Substantially similar results
CCCCCCCCCC(=O)O [decanoic acid],"reduction of penetration on addition, in words (compared with octanoic acid)",[2],Substantially similar results
CCCCCCCC(=O)O [octanoic acid],reduction of penetration on addition to triamcinolone / propylene glycol / C14 OH composition,"[2]; Example 8, 0-72 hrs, 4% octanoic acid",50%
CCCCCCCCCCCCCCCCCCO [steryl alcohol],"reduction of penetration on addition, in words (compared with octanoic acid)",[2],Substantially similar results
